Source: paper PMC9571063 (Molecules, 2022)

Assays:
YSK1 = biological target: T1, YSK1 (Homo sapiens, UniProt O00506); assay: KINOMEscan; format: binding; settings: read-out: Percent Control
T1 construct: purchased Eurofins (KINOMEscan, DiscoverX)

p38-gamma = biological target: T2, p38-gamma (Homo sapiens, UniProt P53778); assay: KINOMEscan; format: binding; settings: read-out: Percent Control
T2 construct: purchased Eurofins DiscoverX KINOMEscan (scanMAX 468)

EGFR(T790M) = biological target: T3, EGFR(T790M) (Homo sapiens, UniProt P00533, T790M); assay: KINOMEscan; format: binding; settings: read-out: Percent Control
T3 construct: purchased Eurofins DiscoverX KINOMEscan (scanMAX 468)

PIM1 = biological target: T4, PIM1 (Homo sapiens, UniProt P11309); assay: KINOMEscan; format: binding; settings: read-out: Percent Control
T4 construct: purchased Eurofins DiscoverX KINOMEscan (scanMAX 468)

CAMK2A = biological target: T5, CAMK2A (Homo sapiens, UniProt Q9UQM7); assay: KINOMEscan; format: binding; settings: read-out: Percent Control
T5 construct: purchased Eurofins DiscoverX KINOMEscan (scanMAX 468)

HUNK = biological target: T6, HUNK (Homo sapiens, UniProt P57058); assay: KINOMEscan; format: binding; settings: read-out: Percent Control
T6 construct: purchased Eurofins DiscoverX KINOMEscan (scanMAX 468)

ACVR1 = biological target: T7, ACVR1 (Homo sapiens, UniProt Q04771); assay: KINOMEscan; format: binding; settings: read-out: Percent Control
T7 construct: purchased Eurofins DiscoverX KINOMEscan (scanMAX 468)

WNK2 = biological target: T8, WNK2 (Homo sapiens, UniProt Q9Y3S1); assay: KINOMEscan; format: binding; settings: read-out: Percent Control
T8 construct: purchased Eurofins DiscoverX KINOMEscan (scanMAX 468)

MYO3A = biological target: T9, MYO3A (Homo sapiens, UniProt Q8NEV4); assay: KINOMEscan; format: binding; settings: read-out: Percent Control
T9 construct: purchased Eurofins DiscoverX KINOMEscan (scanMAX 468)

ERBB2 = biological target: T10, ERBB2 (Homo sapiens, UniProt P04626); assay: KINOMEscan; format: binding; settings: read-out: Percent Control
T10 construct: purchased Eurofins DiscoverX KINOMEscan (scanMAX 468)

CSK = biological target: T11, CSK (Homo sapiens, UniProt P41240); assay: KINOMEscan; format: binding; settings: read-out: Percent Control
T11 construct: purchased Eurofins DiscoverX KINOMEscan (scanMAX 468)

HASPIN = biological target: T12, HASPIN (Homo sapiens, UniProt Q8TF76); assay: KINOMEscan; format: binding; settings: read-out: Percent Control
T12 construct: purchased Eurofins DiscoverX KINOMEscan (scanMAX 468)

TSSK3 = biological target: T13, TSSK3 (Homo sapiens, UniProt Q96PN8); assay: KINOMEscan; format: binding; settings: read-out: Percent Control
T13 construct: purchased Eurofins DiscoverX KINOMEscan (scanMAX 468)

EGFR(L747-T751del,Sins) = assay: KINOMEscan; format: binding, human; settings: 1 μM
SGK = biological target: T14, SGK (Homo sapiens, UniProt O00141); assay: KINOMEscan; format: binding; settings: read-out: Percent Control
T14 construct: purchased Eurofins DiscoverX KINOMEscan (scanMAX 468)

Caco2 = tested on: Caco2; set-up: method as in ref 14 (a number printed in a supplementary file, which may have a reference list of its own: not looked up in the article's list); settings: DB18[a], footnote not given; read-out: Cytotoxic studies IC50 Caco2; cited from earlier work
BMPR2 = biological target: T15, BMPR2 (Homo sapiens, UniProt Q13873); assay: KINOMEscan; format: binding; settings: read-out: Percent Control
T15 construct: purchased Eurofins DiscoverX KINOMEscan (scanMAX 468)

MAP3K4 = biological target: T16, MAP3K4 (Homo sapiens, UniProt Q9Y6R4); assay: KINOMEscan; format: binding; settings: read-out: Percent Control
T16 construct: purchased Eurofins DiscoverX KINOMEscan (scanMAX 468)

NEK9 = biological target: T17, NEK9 (Homo sapiens, UniProt Q8TD19); assay: KINOMEscan; format: binding; settings: read-out: Percent Control
T17 construct: purchased Eurofins DiscoverX KINOMEscan (scanMAX 468)

CAMK1 = biological target: T18, CAMK1 (Homo sapiens, UniProt Q14012); assay: KINOMEscan; format: binding; settings: read-out: Percent Control
T18 construct: purchased Eurofins DiscoverX KINOMEscan (scanMAX 468)

HIPK2 = biological target: T19, HIPK2 (Homo sapiens, UniProt Q9H2X6); assay: KINOMEscan; format: binding; settings: read-out: Percent Control
T19 construct: purchased Eurofins DiscoverX KINOMEscan (scanMAX 468)

JNK2 = biological target: T20, JNK2 (Homo sapiens, UniProt P45984); assay: KINOMEscan; format: binding; settings: read-out: Percent Control
T20 construct: purchased Eurofins DiscoverX KINOMEscan (scanMAX 468)

RIPK4 = biological target: T21, RIPK4 (Homo sapiens, UniProt P57078); assay: KINOMEscan; format: binding; settings: read-out: Percent Control
T21 construct: purchased Eurofins DiscoverX KINOMEscan (scanMAX 468)

[1] = biological target: T22, EGFR(L747-S752del, P753S) (Homo sapiens, UniProt P00533, DEL747-752/P753S); assay: KINOMEscan; format: binding; settings: read-out: Percent Control
T22 construct: purchased Eurofins DiscoverX KINOMEscan (scanMAX 468)

WNK1 = biological target: T23, WNK1 (Homo sapiens, UniProt Q9H4A3); assay: KINOMEscan; format: binding; settings: read-out: Percent Control
T23 construct: purchased Eurofins DiscoverX KINOMEscan (scanMAX 468)

MST4 = biological target: T24, MST4 (Homo sapiens, UniProt Q9P289); assay: KINOMEscan; format: binding; settings: read-out: Percent Control
T24 construct: purchased Eurofins DiscoverX KINOMEscan (scanMAX 468)

TBK1 = biological target: T25, TBK1 (Homo sapiens, UniProt Q9UHD2); assay: KINOMEscan; format: binding; settings: read-out: Percent Control
T25 construct: purchased Eurofins DiscoverX KINOMEscan (scanMAX 468)

BRSK2 = biological target: T26, BRSK2 (Homo sapiens, UniProt Q8IWQ3); assay: KINOMEscan; format: binding; settings: read-out: Percent Control
T26 construct: purchased Eurofins DiscoverX KINOMEscan (scanMAX 468)

MAP4K5 = biological target: T27, MAP4K5 (Homo sapiens, UniProt Q9Y4K4); assay: KINOMEscan; format: binding; settings: read-out: Percent Control
T27 construct: purchased Eurofins DiscoverX KINOMEscan (scanMAX 468)

ACVR2B = biological target: T28, ACVR2B (Homo sapiens, UniProt Q13705); assay: KINOMEscan; format: binding; settings: read-out: Percent Control
T28 construct: purchased Eurofins DiscoverX KINOMEscan (scanMAX 468)

LCK = biological target: T29, LCK (Homo sapiens, UniProt P06239); assay: KINOMEscan; format: binding; settings: read-out: Percent Control
T29 construct: purchased Eurofins DiscoverX KINOMEscan (scanMAX 468)

PLK3 = biological target: T30, PLK3 (Homo sapiens, UniProt Q9H4B4); assay: KINOMEscan; format: binding; settings: read-out: Percent Control
T30 construct: purchased Eurofins DiscoverX KINOMEscan (scanMAX 468)

TGFBR1 = biological target: T31, TGFBR1 (Homo sapiens, UniProt P36897); assay: KINOMEscan; format: binding; settings: read-out: Percent Control
T31 construct: purchased Eurofins DiscoverX KINOMEscan (scanMAX 468)

CAMK1G = biological target: T32, CAMK1G (Homo sapiens, UniProt Q96NX5); assay: KINOMEscan; format: binding; settings: read-out: Percent Control
T32 construct: purchased Eurofins DiscoverX KINOMEscan (scanMAX 468)

CSF1R = biological target: T33, CSF1R (Homo sapiens, UniProt P07333); assay: KINOMEscan; format: binding; settings: read-out: Percent Control
T33 construct: purchased Eurofins DiscoverX KINOMEscan (scanMAX 468)

AKT1 = biological target: T34, AKT1 (Homo sapiens, UniProt P31749); assay: KINOMEscan; format: binding; settings: read-out: Percent Control
T34 construct: purchased Eurofins DiscoverX KINOMEscan (scanMAX 468)

[2] = biological target: T35, TYK2(JH1domain-catalytic) (Homo sapiens, UniProt P29597); assay: KINOMEscan; format: binding; settings: read-out: Percent Control
T35 construct: TYK2(JH1domain-catalytic); purchased Eurofins DiscoverX KINOMEscan (scanMAX 468)

DAPK3 = biological target: T36, DAPK3 (Homo sapiens, UniProt O43293); assay: KINOMEscan; format: binding; settings: read-out: Percent Control
T36 construct: purchased Eurofins DiscoverX KINOMEscan (scanMAX 468)

FES = biological target: T37, FES (Homo sapiens, UniProt P07332); assay: KINOMEscan; format: binding; settings: read-out: Percent Control
T37 construct: purchased Eurofins DiscoverX KINOMEscan (scanMAX 468)

STK16 = biological target: T38, STK16 (Homo sapiens, UniProt O75716); assay: KINOMEscan; format: binding; settings: read-out: Percent Control
T38 construct: purchased Eurofins DiscoverX KINOMEscan (scanMAX 468)

TRKC = biological target: T39, TRKC (Homo sapiens, UniProt Q16288); assay: KINOMEscan; format: binding; settings: read-out: Percent Control
T39 construct: purchased Eurofins DiscoverX KINOMEscan (scanMAX 468)

NLK = biological target: T40, NLK (Homo sapiens, UniProt Q9UBE8); assay: KINOMEscan; format: binding; settings: read-out: Percent Control
T40 construct: purchased Eurofins DiscoverX KINOMEscan (scanMAX 468)

ERN1 = biological target: T41, ERN1 (Homo sapiens, UniProt O75460); assay: KINOMEscan; format: binding; settings: read-out: Percent Control
T41 construct: purchased Eurofins DiscoverX KINOMEscan (scanMAX 468)

T16 sequence (Q9Y6R4 whole entry): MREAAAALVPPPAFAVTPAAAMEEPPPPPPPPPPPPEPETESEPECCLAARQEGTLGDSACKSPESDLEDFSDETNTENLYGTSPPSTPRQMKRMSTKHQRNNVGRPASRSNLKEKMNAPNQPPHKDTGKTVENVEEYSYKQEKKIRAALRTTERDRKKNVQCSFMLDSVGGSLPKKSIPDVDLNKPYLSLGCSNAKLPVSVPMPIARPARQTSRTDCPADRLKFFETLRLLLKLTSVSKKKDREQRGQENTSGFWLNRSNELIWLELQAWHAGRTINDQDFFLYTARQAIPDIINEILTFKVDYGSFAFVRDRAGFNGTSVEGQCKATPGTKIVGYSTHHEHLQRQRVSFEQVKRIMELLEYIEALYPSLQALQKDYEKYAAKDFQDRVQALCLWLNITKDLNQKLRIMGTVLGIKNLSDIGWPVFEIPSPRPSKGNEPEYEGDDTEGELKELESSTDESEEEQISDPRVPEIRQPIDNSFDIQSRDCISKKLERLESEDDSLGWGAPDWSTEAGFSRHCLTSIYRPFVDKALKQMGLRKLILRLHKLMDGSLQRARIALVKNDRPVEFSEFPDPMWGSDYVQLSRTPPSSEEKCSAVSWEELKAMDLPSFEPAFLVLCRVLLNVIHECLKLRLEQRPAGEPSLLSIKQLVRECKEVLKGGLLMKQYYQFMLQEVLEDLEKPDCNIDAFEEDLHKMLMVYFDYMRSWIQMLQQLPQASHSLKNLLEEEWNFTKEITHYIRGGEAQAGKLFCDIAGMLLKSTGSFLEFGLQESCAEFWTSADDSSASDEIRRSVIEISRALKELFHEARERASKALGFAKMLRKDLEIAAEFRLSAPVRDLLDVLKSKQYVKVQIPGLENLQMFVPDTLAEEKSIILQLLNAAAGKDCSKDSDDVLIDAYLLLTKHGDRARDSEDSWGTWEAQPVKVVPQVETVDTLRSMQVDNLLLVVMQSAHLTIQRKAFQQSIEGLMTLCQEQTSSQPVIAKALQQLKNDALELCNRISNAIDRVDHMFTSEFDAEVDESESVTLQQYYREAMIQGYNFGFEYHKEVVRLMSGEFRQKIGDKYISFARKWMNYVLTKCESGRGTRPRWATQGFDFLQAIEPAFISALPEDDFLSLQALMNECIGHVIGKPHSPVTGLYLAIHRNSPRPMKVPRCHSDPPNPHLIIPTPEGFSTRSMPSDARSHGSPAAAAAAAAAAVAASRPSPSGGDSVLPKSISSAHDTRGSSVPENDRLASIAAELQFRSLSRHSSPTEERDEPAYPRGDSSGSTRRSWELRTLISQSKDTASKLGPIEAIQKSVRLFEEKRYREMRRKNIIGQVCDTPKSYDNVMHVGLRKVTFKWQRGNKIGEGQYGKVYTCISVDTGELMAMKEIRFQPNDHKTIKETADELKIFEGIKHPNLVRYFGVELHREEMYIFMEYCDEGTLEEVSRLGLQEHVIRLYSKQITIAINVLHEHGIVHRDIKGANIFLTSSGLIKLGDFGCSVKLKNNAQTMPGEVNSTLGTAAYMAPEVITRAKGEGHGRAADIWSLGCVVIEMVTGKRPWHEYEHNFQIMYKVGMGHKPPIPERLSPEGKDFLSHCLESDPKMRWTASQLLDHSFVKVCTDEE
T26 sequence (Q8IWQ3 whole entry): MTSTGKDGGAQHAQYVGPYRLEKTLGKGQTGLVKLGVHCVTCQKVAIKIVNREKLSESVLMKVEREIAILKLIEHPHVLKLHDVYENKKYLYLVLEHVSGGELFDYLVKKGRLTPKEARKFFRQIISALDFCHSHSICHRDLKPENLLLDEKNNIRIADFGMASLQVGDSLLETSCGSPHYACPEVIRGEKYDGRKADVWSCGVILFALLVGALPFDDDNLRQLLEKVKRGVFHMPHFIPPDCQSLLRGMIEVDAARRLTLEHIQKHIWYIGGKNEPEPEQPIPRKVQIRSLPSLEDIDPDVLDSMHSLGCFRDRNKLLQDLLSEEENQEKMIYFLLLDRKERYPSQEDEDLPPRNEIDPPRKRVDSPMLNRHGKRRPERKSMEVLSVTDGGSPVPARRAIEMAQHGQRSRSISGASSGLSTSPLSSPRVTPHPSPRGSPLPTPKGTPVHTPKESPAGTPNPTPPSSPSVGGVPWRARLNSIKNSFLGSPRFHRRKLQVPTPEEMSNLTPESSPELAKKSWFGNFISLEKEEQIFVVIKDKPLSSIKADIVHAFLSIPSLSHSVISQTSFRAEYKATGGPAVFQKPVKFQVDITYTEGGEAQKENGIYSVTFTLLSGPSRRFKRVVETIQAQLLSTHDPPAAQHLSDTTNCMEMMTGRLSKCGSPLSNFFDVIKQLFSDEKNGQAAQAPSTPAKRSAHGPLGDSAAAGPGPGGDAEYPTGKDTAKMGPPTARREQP
T6 sequence (P57058 whole entry): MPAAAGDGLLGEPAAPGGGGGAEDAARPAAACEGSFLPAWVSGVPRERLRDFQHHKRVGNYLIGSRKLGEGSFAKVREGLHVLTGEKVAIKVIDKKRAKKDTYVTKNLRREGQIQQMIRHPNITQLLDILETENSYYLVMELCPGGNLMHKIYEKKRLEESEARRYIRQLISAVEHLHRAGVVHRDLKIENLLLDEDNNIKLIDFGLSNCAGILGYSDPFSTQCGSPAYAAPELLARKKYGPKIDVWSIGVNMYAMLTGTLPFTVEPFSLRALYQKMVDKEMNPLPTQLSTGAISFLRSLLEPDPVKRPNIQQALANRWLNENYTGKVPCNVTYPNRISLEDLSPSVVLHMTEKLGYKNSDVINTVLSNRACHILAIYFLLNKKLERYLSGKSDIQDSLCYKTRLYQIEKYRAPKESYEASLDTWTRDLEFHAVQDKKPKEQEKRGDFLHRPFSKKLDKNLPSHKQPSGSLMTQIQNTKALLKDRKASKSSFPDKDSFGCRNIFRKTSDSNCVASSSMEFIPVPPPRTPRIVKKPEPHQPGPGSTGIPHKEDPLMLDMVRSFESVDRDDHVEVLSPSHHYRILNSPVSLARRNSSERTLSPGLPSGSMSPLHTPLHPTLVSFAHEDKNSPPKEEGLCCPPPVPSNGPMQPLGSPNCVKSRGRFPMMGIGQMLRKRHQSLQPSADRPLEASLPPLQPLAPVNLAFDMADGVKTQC
T21 sequence (P57078 whole entry): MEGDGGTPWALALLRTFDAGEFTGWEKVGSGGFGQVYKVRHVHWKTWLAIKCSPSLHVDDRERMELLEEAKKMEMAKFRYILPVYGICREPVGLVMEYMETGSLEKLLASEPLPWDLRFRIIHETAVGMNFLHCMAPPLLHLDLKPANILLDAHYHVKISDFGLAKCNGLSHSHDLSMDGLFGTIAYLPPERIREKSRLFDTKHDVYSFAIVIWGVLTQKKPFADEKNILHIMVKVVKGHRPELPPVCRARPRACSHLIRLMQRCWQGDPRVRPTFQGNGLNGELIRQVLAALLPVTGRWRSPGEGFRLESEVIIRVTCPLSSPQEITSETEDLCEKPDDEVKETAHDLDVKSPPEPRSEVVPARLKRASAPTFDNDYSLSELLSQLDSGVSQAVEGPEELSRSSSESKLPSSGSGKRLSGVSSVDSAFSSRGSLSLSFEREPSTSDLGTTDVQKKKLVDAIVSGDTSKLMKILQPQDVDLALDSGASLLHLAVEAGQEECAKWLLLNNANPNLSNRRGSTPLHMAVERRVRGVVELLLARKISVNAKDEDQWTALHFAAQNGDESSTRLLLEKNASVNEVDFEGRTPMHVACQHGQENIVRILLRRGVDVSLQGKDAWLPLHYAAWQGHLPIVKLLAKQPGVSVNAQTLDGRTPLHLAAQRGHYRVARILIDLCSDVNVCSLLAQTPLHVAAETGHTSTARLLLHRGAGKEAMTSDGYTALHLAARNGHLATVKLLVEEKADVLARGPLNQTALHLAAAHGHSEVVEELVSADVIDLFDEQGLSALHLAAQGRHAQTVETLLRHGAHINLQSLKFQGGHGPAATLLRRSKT
T1 sequence (O00506 whole entry): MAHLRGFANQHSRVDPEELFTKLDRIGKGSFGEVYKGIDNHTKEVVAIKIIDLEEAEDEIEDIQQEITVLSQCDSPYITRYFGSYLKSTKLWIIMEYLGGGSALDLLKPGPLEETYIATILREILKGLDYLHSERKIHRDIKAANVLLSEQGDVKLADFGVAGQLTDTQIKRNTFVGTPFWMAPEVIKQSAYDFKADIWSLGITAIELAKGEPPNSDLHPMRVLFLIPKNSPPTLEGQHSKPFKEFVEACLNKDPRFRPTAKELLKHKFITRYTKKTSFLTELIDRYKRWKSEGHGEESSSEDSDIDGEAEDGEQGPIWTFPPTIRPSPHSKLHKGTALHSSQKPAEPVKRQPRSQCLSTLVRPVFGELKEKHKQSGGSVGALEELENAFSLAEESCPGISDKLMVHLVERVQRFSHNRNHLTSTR
T35 sequence (P29597 871-1187 limits assumed): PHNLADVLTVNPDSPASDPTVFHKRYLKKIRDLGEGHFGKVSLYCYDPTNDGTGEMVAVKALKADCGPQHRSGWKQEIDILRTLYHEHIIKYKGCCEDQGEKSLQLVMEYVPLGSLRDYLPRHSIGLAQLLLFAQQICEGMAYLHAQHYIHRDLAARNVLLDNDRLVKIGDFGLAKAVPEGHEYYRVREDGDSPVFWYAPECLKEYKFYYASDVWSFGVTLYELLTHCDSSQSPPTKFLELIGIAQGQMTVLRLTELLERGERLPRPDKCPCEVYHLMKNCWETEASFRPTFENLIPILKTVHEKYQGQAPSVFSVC
T24 sequence (Q9P289 whole entry): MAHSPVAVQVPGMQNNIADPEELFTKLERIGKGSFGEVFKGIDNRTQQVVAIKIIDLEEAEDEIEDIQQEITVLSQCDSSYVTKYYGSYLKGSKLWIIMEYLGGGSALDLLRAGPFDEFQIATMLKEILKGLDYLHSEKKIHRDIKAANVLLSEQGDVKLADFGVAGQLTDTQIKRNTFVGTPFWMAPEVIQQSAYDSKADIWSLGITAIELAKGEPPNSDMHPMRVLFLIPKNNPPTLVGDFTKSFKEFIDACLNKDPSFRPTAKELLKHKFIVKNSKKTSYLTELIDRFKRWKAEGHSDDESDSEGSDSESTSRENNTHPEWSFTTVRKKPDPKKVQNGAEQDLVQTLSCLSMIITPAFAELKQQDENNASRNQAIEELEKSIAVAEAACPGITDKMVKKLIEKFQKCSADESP

Structure (SMILES): Cc1ccc(-n2cc(COc3cccc4cnc(Nc5cccc(Cl)c5)nc34)nn2)c([N+](=O)[O-])c1 [DB18]
- remaining binding at 1 µM (YSK1): 98%
- remaining binding at 1 µM (p38-gamma): 100%
- remaining binding at 1 µM (EGFR(T790M)): 100%
- remaining binding at 1 µM (PIM1): 100%
- remaining binding at 1 µM (CAMK2A): 96%
- remaining binding at 1 µM (HUNK): 90%
- remaining binding at 1 µM (ACVR1): 100%
- remaining binding at 1 µM (WNK2): 67%
- remaining binding at 1 µM (MYO3A): 100%
- remaining binding at 1 µM (ERBB2): 57%
- remaining binding at 1 µM (CSK): 100%
- remaining binding at 1 µM (HASPIN): 72%
- remaining binding at 1 µM (TSSK3): 96%
- Percent Control (EGFR(L747-T751del,Sins)): 100 % Ctrl
- remaining binding at 1 µM (SGK): 100%
- IC50 (Caco2): 37 µM
- remaining binding at 1 µM (BMPR2): 100%
- remaining binding at 1 µM (MAP3K4): 100%
- remaining binding at 1 µM (NEK9): 100%
- remaining binding at 1 µM (CAMK1): 100%
- remaining binding at 1 µM (HIPK2): 33%
- remaining binding at 1 µM (JNK2): 96%
- remaining binding at 1 µM (RIPK4): 82%
- remaining binding at 1 µM [1]: 83%
- remaining binding at 1 µM (WNK1): 100%
- remaining binding at 1 µM (MST4): 97%
- remaining binding at 1 µM (TBK1): 91%
- remaining binding at 1 µM (BRSK2): 97%
- remaining binding at 1 µM (MAP4K5): 100%
- remaining binding at 1 µM (ACVR2B): 100%
- remaining binding at 1 µM (LCK): 100%
- remaining binding at 1 µM (PLK3): 98%
- remaining binding at 1 µM (TGFBR1): 100%
- remaining binding at 1 µM (CAMK1G): 100%
- remaining binding at 1 µM (CSF1R): 100%
- remaining binding at 1 µM (AKT1): 87%
- remaining binding at 1 µM [2]: 99%
- remaining binding at 1 µM (DAPK3): 98%
- remaining binding at 1 µM (FES): 100%
- remaining binding at 1 µM (STK16): 41%
- remaining binding at 1 µM (TRKC): 59%
- remaining binding at 1 µM (NLK): 87%
- remaining binding at 1 µM (ERN1): 94%
